{"source": "paper PMC12846378", "about": "(Viruses, 2026)", "key": {"[1]": {"test_system": "rLCMV/GFP-P2A-NP", "assay_type": "cell-based"}, "[2]": {"test_system": "LCMV NP RNA", "assay_type": "cell-based"}, "[3]": {"test_system": "rJUNV/GFP-P2A-NP", "assay": "organism not typed", "assay_type": "cell-based"}, "[4]": {"test_system": "rLCMV/GFP-P2A-NP", "assay_type": "cell-based", "remark": "listed apart in the source"}, "[5]": {"test_system": "rJUNV/GFP-P2A-NP", "assay": "organism not typed", "assay_type": "cell-based", "remark": "listed apart in the source"}, "[6]": {"test_system": "LASV vRNP", "assay_type": "cell-based"}, "[7]": {"target": "LCMV vRNP (Mammarenavirus choriomeningitidis (LCMV), UniProt P14240)", "assay_type": "cell-based"}, "[8]": {"test_system": "rLCMV/GFP-P2A-NP", "assay_type": "cell-based", "remark": "listed apart in the source"}, "[9]": {"test_system": "A549 cells"}, "[10]": {"test_system": "HEK293T cells"}, "[11]": {"test_system": "HEK293T cells", "remark": "listed apart in the source"}, "[12]": {"test_system": "Vero E6 cells"}, "[13]": {"test_system": "LCMV Z", "assay_type": "cell-based"}, "[14]": {"test_system": "A549 cells", "remark": "listed apart in the source"}, "[15]": {"test_system": "A549 cells", "remark": "listed apart in the source"}, "[16]": {"test_system": "rLCMV/GFP-P2A-NP", "assay_type": "cell-based", "remark": "listed apart in the source"}, "[17]": {"test_system": "ISG15", "assay_type": "cell-based"}, "[18]": {"test_system": "rLCMV/GFP-P2A-NP", "assay": "organism not typed", "assay_type": "cell-based"}, "[19]": {"assay": "in vitro", "settings": "African green monkey"}, "[20]": {"test_system": "MX1", "assay_type": "cell-based"}}, "note": "Values joined by “and” are separate entries in the source; they are usually repeats but may differ in a detail not shown here. Identical values can stand only once. Like-named read-outs stand apart in the source and are kept apart here."}
{"smiles": "O=C(/C=C\\n1cnc(-c2cc(C(F)(F)F)cc(C(F)(F)F)c2)n1)NNc1cnccn1", "note": "[SE, Selinexor]", "values": [{"measurement": "production of infectious virus (titers in CCS)", "setting": "[1]", "value": "potent inhibitory effect on LCMV multiplication"}]}
{"smiles": "CNC1=Nc2ccc(Cl)cc2C(c2ccc[nH]2)=NC1", "note": "[RO, Ro-24-7429]", "values": [{"measurement": "production of infectious virus (titers in CCS)", "setting": "[1]", "value": "reduced efficacy at 1 µM compared to 5 µM"}, {"measurement": "effect on virus RNA replication and transcription", "setting": "[2]", "value": "inhibited to a similar degree both virus replication and transcription"}, {"measurement": "antiviral activity against JUNV", "setting": "[3]", "value": "less efficient"}, {"measurement": "EC50", "setting": "[3]; read-out: EC50", "value": 15300, "unit": "nM"}, {"measurement": "EC50", "setting": "[4]; read-out: EC50", "value": "889 nM and 890 nM"}, {"measurement": "antiviral activity against JUNV", "setting": "[5]", "value": "less efficient"}, {"measurement": "inhibition of LASV MG activity", "setting": "[6]", "value": "significantly less efficient"}, {"measurement": "inhibition of LCMV MG activity", "setting": "[7]", "value": "significantly less efficient"}, {"measurement": "reduction in infectivity (GFP signal)", "setting": "[8]", "value": "≥ 80", "unit": "%"}, {"measurement": "reduction in cell viability / cytotoxicity", "setting": "[9]", "value": "≤ 20", "unit": "%"}, {"measurement": "CC50", "setting": "[10]", "value": "> 20000", "unit": "nM"}, {"measurement": "CC50", "setting": "[11]", "value": "> 1000", "unit": "nM"}, {"measurement": "CC50", "setting": "[12]", "value": "> 30000", "unit": "nM"}, {"measurement": "effect on Z budding activity", "setting": "[13]", "value": "did not affect"}, {"measurement": "CC50", "setting": "[14]", "value": "> 20000", "unit": "nM"}, {"measurement": "CC50", "setting": "[15]", "value": "> 30000", "unit": "nM"}]}
{"smiles": "O=C(/C=C\\n1cnc(-c2cc(C(F)(F)F)cc(C(F)(F)F)c2)n1)NNc1ccccn1", "note": "[VE, verdinexor]", "values": [{"measurement": "reduction in virus peak titers", "setting": "[1]", "value": "~2", "unit": "log"}, {"measurement": "effect on virus RNA replication and transcription", "setting": "[2]", "value": "inhibited to a similar degree both virus replication and transcription"}, {"measurement": "EC50", "setting": "[3]", "value": 240, "unit": "nM"}, {"measurement": "antiviral activity against JUNV", "setting": "[3]", "value": "potent antiviral activity"}, {"measurement": "EC50", "setting": "[3]; Vero C1008", "value": 239, "unit": "nM"}, {"measurement": "EC50", "setting": "[4]", "value": 70, "unit": "nM"}, {"measurement": "effect on LCMV multiplication in MAVS-KO A549 cells", "setting": "[16]", "value": "strong dose-dependent inhibitory effect"}, {"measurement": "antiviral activity against JUNV", "setting": "[5]", "value": "potent antiviral activity"}, {"measurement": "EC50", "setting": "[5]; A549", "value": 36, "unit": "nM"}, {"measurement": "inhibition of LASV MG activity", "setting": "[6]", "value": "potently inhibited"}, {"measurement": "expression level of ISG15", "setting": "[17]", "value": "reduced expression levels"}, {"measurement": "inhibition of LCMV MG activity", "setting": "[7]", "value": "potently inhibited"}, {"measurement": "inhibition at 0.3334 µM", "setting": "[18]", "value": 77.6, "unit": "%"}, {"measurement": "inhibition at 1 µM", "setting": "[18]", "value": "97.05 ± 0.41", "unit": "%"}, {"measurement": "reduction in infectivity (GFP signal)", "setting": "[8]", "value": "≥ 80", "unit": "%"}, {"measurement": "reduction in cell viability / cytotoxicity", "setting": "[9]; human", "value": "≤ 20", "unit": "%"}, {"measurement": "effect on Z budding activity", "setting": "[13]", "value": "significant inhibitory effect"}, {"measurement": "CC50", "setting": "[19]", "value": "> 30000", "unit": "nM"}, {"measurement": "expression level of MX1", "setting": "[20]", "value": "reduced expression levels"}]}
